From PubChem BioAssay (NCI)
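Five compound concentrations were applied to cells in 96-well plates for 48 hours; endpoints were derived by simple linear interpolation of the resulting dose-response curve. The concentration for full growth arrest is given as TGI.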

What was measured:
Experiment in all cases: NCI anticancer screen, dose series, 48 h
[1] = tested on: COLO 205 colon
[2] = tested on: UACC-257 melanoma
[3] = tested on: MALME-3M melanoma
[4] = tested on: OVCAR-5 ovarian
[5] = tested on: T-47D breast
[6] = tested on: HOP-62 NSCLC
[7] = tested on: SF-295 CNS
[8] = tested on: NCI/ADR-RES ovarian
[9] = tested on: SNB-75 CNS
[10] = tested on: TK-10 renal
[11] = tested on: IGROV1 ovarian
[12] = tested on: HOP-92 NSCLC
[13] = tested on: HCT-15 colon
[14] = tested on: OVCAR-8 ovarian
[15] = tested on: SN12C renal
[16] = tested on: SK-OV-3 ovarian
[17] = tested on: U251 CNS
[18] = tested on: A549 NSCLC
[19] = tested on: HS 578T breast
[20] = tested on: BT-549 breast

SMILES	TGI [1] [µM]	TGI [2] [µM]	TGI [3] [µM]	TGI [4] [µM]	TGI [5] [µM]	TGI [6] [µM]	TGI [7] [µM]	TGI [8] [µM]	TGI [9] [µM]	TGI [10] [µM]	TGI [11] [µM]	TGI [12] [µM]	TGI [13] [µM]	TGI [14] [µM]	TGI [15] [µM]	TGI [16] [µM]	TGI [17] [µM]	TGI [18] [µM]	TGI [19] [µM]	TGI [20] [µM]
COc1cc(-c2oc3c(OC)c(O)c(OC)c(O)c3c(=O)c2OC)cc(O)c1OC	> 100	> 100	99.4	> 100	> 100	> 100	53.6	52.7	42	> 100	> 100	> 100	> 100	> 100	> 100	49.3	> 100	> 100		
COc1ccc2nc3ccc(OC)cc3c(S(=O)(=O)Cc3ccc([N+](=O)[O-])cc3)c2c1	> 100	> 100	> 100	> 100	> 100	> 100	> 100	> 100	> 100	> 100	> 100	> 100	> 100	> 100	> 100	> 100	> 100	> 100		
CCOC(=O)CCC(NC(=O)c1ccc(Oc2nc3ccc(C(F)(F)F)cc3nc2-c2ccccc2)cc1)C(=O)OCC (stereo not given)	> 100	> 100	44.9	> 100	> 100	> 89.5	> 71.6	> 100	29.1	> 100	> 100	98.4	> 100	> 57.7	> 100	37.9	> 100	> 100	9.34	
O=C1/C(=C\c2cccc(Oc3ccccc3)c2)S(=O)(=O)C(c2ccccc2)N1c1ccc(Cl)cc1 (stereo not given)	28.2	94.3	33.6	88.7	29.9	> 100	41.2	54.1	> 100	> 100	33.2	30.8	32.8	37.3	29	> 100	30.5	> 100		49.9
Cc1cn(C2CCC(/C=N\O)O2)c(=O)[nH]c1=O (stereo not given)	> 100	> 100		> 100	> 100	> 100	> 100	> 100	> 100		> 100	> 100	> 100	> 100	> 100		> 100	> 100		> 100
COc1ccc(C2SCC(=O)N2c2ccc(-n3c(-c4ccccc4)nc4ccccc4c3=O)cc2)cc1OC (stereo not given)	> 100	> 100	> 100	> 100	> 100	> 100	> 100	> 100	51.7	> 100	> 100		> 100	> 100	> 100	> 100	> 100	> 100	> 100	> 100
CC1(C2(C)OC(=O)c3ccccc32)OC(=O)c2ccccc21 (stereo not given)	> 100	> 100			> 100	> 100	> 100	> 100	> 100	> 100	> 100	> 100	> 100	> 100	> 100	> 100	> 100	> 100	> 100	> 100
O=C1C(/C=C/c2ccc(Cl)cc2)=NNC2N1N=C1NC(=O)C3(NN12)c1ccccc1-c1ccccc13 (stereo not given)	> 100	> 100	> 100	> 100		> 100	> 100	> 100	> 100	> 100	> 100	> 100	> 100	> 100	> 100	> 100	> 100	> 100	> 100	> 100
COCC1OC(OC2C3=C(C(C)C)CCC3(C)/C=C3\C(CCC3(O)COC)C(C)C2O)C(O)C2OC3OC12OC3(C)C1CO1 (stereo not given)	> 100	> 100	> 100	> 100	> 100	> 100	> 100		92.7	> 100	> 100	> 100	> 100	> 100	> 100	> 100	98.8	> 100	> 100	87.8
CCOc1ccc(/C(O)=C/c2nc3ccccc3nc2/C=C(\O)c2ccc(OCC)cc2)cc1	> 100	> 100	> 100	> 100	> 100	> 100	> 100			> 100	> 100	> 100	> 100		> 100	> 100	> 100	> 100	> 100	> 100
COc1ccc2nc3cccc([N+](=O)[O-])c3c(NCCO)c2c1	0.0146	0.0813	0.0337	0.0698	0.805	0.0668	1.03	0.0939	0.336	0.142	0.479	0.0499	0.0481	0.0532	0.0792	0.752	0.122	0.0909	0.0644	
O=c1oc2ccccc2c(O)c1C(c1ccco1)c1c(O)c2ccccc2oc1=O	48.9	63.4	41.7		> 100	> 100		> 100	95.9	80.2	45.8	> 100	41.4	82	63.1		61.8		> 100	
O=c1[nH]c(Nc2cccc(C(F)(F)F)c2)nc2nc[nH]c12	> 100	> 100	> 100	> 100	> 100	> 100	> 100	> 100	> 100	> 100	> 100	> 100	> 100	> 100	> 100	> 100	> 100	> 100	> 100	
